Experimental data reported in US11840551B2, “Compositions and methods of modulating the immune response by activating alpha protein kinase 1” (Shanghai Yao Yuan Biotechnology Co., Ltd., priority 2017, dated 2023).

Assays:
HBV = experiment: HBV-AAV mouse model; format: in vivo, C57BL/6 mice
Method: Administration of Compound 28 (0.1 mg/kg, twice weekly “BIW”) led to downregulation of HBV DNA expression and a decrease in serum levels of HBsAg, and HBeAg in the HBV-AAV mouse model. At day 1, male C57BL/6 mice were intravenously injected with AAV8-1.3HBV (1×10^11 v/g). After days 28 and 31, each mouse was then intraperitoneally injected with 0.1 mg/kg compound 28 or PBS control. At day 35, mouse serum was collected for HBV DNA qPCR analysis, HBsAg and HBeAg serum analysis by ELISA.

ALPK1 = target: T1, ALPK1 (Mus musculus, UniProt Q9CXB8); experiment: Serum RANTES levels as marker of ALPK1 activation in vivo; set-up: species or system C57/B6 mice; settings: 10 nmole subcutaneous, serum at 24 hours or 48 hours, compared to Compound 15
T1 construct: C57/B6 mice (n=3 mice/group) were injected subcutaneously; from tissue; host or cells: whole animal, C57/B6 mice
T1 sequence (Q9CXB8 1-1231): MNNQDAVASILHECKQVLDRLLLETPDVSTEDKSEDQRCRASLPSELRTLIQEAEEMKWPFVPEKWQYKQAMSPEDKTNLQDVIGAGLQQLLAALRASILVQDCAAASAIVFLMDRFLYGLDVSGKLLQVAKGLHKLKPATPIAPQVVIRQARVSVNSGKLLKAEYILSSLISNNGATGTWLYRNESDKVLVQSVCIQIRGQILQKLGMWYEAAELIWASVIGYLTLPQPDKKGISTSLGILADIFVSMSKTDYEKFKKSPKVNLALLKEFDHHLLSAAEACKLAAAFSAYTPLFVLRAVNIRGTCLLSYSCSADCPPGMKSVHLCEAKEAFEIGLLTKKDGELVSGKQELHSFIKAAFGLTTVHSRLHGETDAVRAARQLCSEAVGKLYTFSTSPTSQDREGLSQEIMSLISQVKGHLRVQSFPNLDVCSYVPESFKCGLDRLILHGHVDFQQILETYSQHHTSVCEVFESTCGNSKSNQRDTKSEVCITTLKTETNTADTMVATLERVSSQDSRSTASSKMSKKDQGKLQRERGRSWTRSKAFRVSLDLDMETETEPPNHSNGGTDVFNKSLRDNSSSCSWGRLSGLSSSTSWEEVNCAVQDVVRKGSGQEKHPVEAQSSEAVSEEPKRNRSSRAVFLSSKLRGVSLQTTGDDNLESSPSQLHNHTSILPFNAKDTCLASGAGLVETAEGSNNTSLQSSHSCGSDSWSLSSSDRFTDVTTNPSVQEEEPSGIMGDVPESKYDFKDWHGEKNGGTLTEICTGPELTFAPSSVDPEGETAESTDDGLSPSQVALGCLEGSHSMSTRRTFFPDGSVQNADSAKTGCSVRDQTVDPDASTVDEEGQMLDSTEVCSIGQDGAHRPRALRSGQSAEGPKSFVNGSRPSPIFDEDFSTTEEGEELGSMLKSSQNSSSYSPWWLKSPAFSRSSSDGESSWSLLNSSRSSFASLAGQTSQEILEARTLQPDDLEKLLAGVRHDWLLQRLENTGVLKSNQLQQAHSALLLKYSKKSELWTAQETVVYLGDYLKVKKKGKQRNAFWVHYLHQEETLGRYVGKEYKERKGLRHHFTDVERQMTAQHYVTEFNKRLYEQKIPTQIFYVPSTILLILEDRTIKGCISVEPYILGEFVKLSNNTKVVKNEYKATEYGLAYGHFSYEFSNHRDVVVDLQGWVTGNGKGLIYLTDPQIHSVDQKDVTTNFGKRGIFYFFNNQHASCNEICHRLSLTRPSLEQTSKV
Method: The ability of Compounds 15 and 28 to stimulate ALPK1 activation in vivo was tested by monitoring serum levels of the chemokine RANTES (CCLS), which is elevated upon activation of ALPK1. Briefly, C57/B6 mice (n=3 mice/group) were injected subcutaneously with PBS (negative control) or 10 nmole of Compound 15 or Compound 28. Serum was collected at 24 hours or 48 hours post injection.

[1] = test system: eosinophils, dendritic cells, neutrophils; experiment: Porcine pancreas elastase (PPE) model, immune cells in bronchoalveolar lavage (flow cytometry); format: in vivo, C57BL/6 mice; settings: 4 nmol/dose and 20 nmol/dose intraperitoneal on days -1, 0, 1; BAL on day 2
Method: Eight-week-old male C57BL/6 mice were grouped (N=8/group) and were intraperitoneally (I.P.) injected with compound 28 at 0, 4, or 20 nmol/dose on days −1, 0, and 1. In addition, mice were intratracheally (I.Tr.) administrated with 0 or 30 μg/dose of porcine pancreas elastase (PPE) dissolved in 50 μL saline on day 0. Mice were sacrificed on day 2 and the immune cells were collected by bronchoalveolar lavage (BAL). Cells were then subjected to fluorophore-conjugated antibody staining and analyzed by flow cytometry. Data were processed with a FlowJo […] (Treestar) Immune cells were gated as singlets >live cells>CD11c^highSiglecF^lowMHCII^high (dendritic cells), CD11c^lowCD11b^highLy-6G^high (neutrophils), and CD11c^lowCD11b^highLy-6G^lowSiglecF^high (eosinophils).

HBsAg, adw = experiment: Immunization with HBsAg, adw, specific total IgG serum titers (ELISA); format: in vivo, C57BL/6J mice; settings: intradermal, adw combined with 1 nmol/dose compound 28, days 0 and 14, sera at day 35
Method: Eight-week-old C57BL/6J mice (females) were intradermally (I.D.) immunized at day 0 with HBsAg, adw (1 mg/dose), or HBsAg, adw at 1 mg/dose combined with compound 28 (1 nmol/dose). Mice were boosted with a second immunization at day 14 and the sera collected at day 35. HBsAg, adw-specific total IgG serum titers (OD450) were determined by ELISA. Anti-HBsAg, adw IgG titers were more than 2× higher when HBsAg, adw was combined with 1 nmol/dose of compound 28 than when HBsAg, adw was injected alone (FIG. 35).

[2] = 0.1 mg/kg intraperitoneal at days 28 and 31, serum at day 35, ELISA

## CC(=O)OC[C@H](F)[C@H]1O[C@@H](OP(=O)(O)OP(O)(=S)OC[C@H]2O[C@@H](n3cnc4c(N)ncnc43)[C@H](O)[C@@H]2O)[C@@H](OC(C)=O)[C@@H](OC(C)=O)[C@@H]1OC(C)=O (stereo partly drawn) [Compound 28, (2S,3S,4S,5S,6S)-2-((S)-2-acetoxy-1-fluoroethyl)-6-(((((((2R,3S,4R,5R)-5-(6-amino-9H-purin-9-yl)-3,4-dihydroxytetrahydrofuran-2-yl)methoxy)(hydroxy)phosphorothioyl)oxy)(hydroxy)phosphoryl)oxy)tetrahydro-2H-pyran-3,4,5-triyl triacetate]
HBV; [2]
  serum levels of HBeAg: marked decrease
  serum levels of HBsAg: marked decrease
HBV; 0.1 mg/kg intraperitoneal at days 28 and 31, serum at day 35, qPCR
  HBV DNA expression: marked decrease
ALPK1
  duration of immune activation (serum RANTES): showed a longer duration of immune activation
[1]
  increase in the production of dendritic cells after PPE administration: significantly suppressed
  increase in the production of eosinophils after PPE administration: significantly suppressed
  increased production of neutrophils after PPE administration: also suppressed but only at the 20 nmol/dose level
HBsAg, adw
  Anti-HBsAg, adw IgG titers relative to HBsAg, adw injected alone: more than 2 ×
